Results from patent US7598269B2, “Methods and compositions for treating amyloid-related diseases” (Bellus Health (International) Limited, priority 2003, dated 2009).

Experiments:
[1] = target: T1, NAC peptide (Homo sapiens, UniProt P37840); experiment: Binding to NAC peptide by electrospray mass spectrometry; conditions: area of bound NAC-compound complex peaks / unbound NAC; compound:NAC 5:1, 6.6% EtOH, pH 7.4
T1 construct: NAC is a 35 amino acid long peptide with highly hydrophobic stretches
Experimental: The ability of the compounds of the present invention to bind to NAC peptide in aqueous solution was evaluated. The binding ability correlates to the intensities of the peptide-compound complex peaks observed by the Electrospray Mass Spectrum. Millipore distilled deionized water was used to prepare all aqueous solutions. For pH determination a Beckman Φ36 pH meter fitted with a Corning Semi-Micro Combination pH Electrode was employed.
The optimal cone voltage was determined to be 20V.
Mass spectrometry—Mass spectrometric analysis was performed using a Waters ZQ 4000 mass spectrometer equipped with a Waters 2795 sample manager. MassLynx 4.0 (earlier by MassLynx 3.5) was used for data processing and analysis. Test compounds were mixed with disaggregated peptides in aqueous media (6.6% EtOH) at a 5:1 ratio (20 μM NAC: 100 μM of test compound or 40 μM NAC:200 μM of test compound). The pH of the mixture was adjusted to 7.4 (±0.2) using 0.1% NaOH (3-5 μL). Periodically, NAC peptide solution at 20 μM or 40 μM was also prepared in the same fashion and run as control. The spectra were obtained by introducing the solutions to the electrospray source by direct infusion using a syringe pump at a flow rate of 25 μl/min, and scanning from 100 to 2100 Da in the positive mode. The scan time was 0.9 sec per scan with an inter-scan delay of 0.1 sec and the run time was 5 min for each sample. All the mass spectra were sum of 300 scans. The desolvation and source temperature was 70° C. and the cone and capillary voltage were maintained at 20 V and 3.2 kV respectively.
The total area under the peaks for the bound NAC-compound complex divided by total area under the peaks for unbound NAC was determined for each compound tested.

[2] = target: T2, Aβ40 (Homo sapiens, UniProt P05067); experiment: Short term treatment of TgCRND8 mice: Aβ40 levels in plasma and brain (ELISA); assay type: in vivo, Mouse; conditions: methylcellulose group
T2 construct: from tissue; host or cells: plasma and brain homogenate of TgCRND8 transgenic mice (hAPP transgene)
T2 sequence (P05067 672-711 limits assumed): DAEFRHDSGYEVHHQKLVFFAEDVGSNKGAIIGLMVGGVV
Text: (§1) Transgenic mice, […]8, expressing the human amyloid precursor protein (hAPP) develop a pathology resembling Alzheimer's disease. In particular, high levels of Aβ40 and Aβ42 have been documented in the plasma and the brain of these animals at 8-9 weeks of age, followed by early accumulation of amyloid plaques similar to the senile plaques observed in […]. These animals also display progressive cognitive deficits that parallel the appearance of degenerative changes. See, […], et al., J. Biol. Chem. 276, 21562-70 (2001). The short term therapeutic effect of 19 compounds of the invention was studied. […] The following abbreviations are used to designate these animals from the 3rd and 4th generation backcross in the present protocol: TgCRND8-2.B6C3F1 (N3); TgCRND8-2.B6C3F1 (N4). Baseline animals (Group 1) consisted of naive TgCRND8-2.B6C3F1(N3) at 11±1 weeks of age. These mice were used to determine the Aβ levels in the plasma and brain of naive transgenic animals at the initiation of treatment. […] At the end of the treatment periods, plasma and perfused brains were collected for quantification of Aβ levels. […] Plasma samples were immediately frozen and stored at -80° C. pending analysis. The brains were removed, frozen, and stored at -80° C. awaiting analysis. […] Samples were spun at 15000 g for 20 minutes and the supernatants were transferred to fresh tubes. […] The tubes were vortexed for 30 seconds and frozen at -80° C. […] Samples were thawed at room temperature, sonicated at 80° C. for 15 minutes and frozen again. This cycle was repeated 3 times to ensure homogeneity and samples were returned to -80° C. pending analysis. Aβ levels were evaluated in plasma and brain samples by ELISA using Human Aβ40 and Aβ42 Fluorometric ELISA kits from Biosource (Cat. […] In short, samples were thawed at room temperature, sonicated for 5 minutes at 80° C. (sonication for brain homogenates; no sonication for plasma samples) and kept on ice. Aβ peptides were captured using 100 μl of the diluted samples to the plate and incubated without shaking at 4° C. overnight. The samples were aspirated and the wells were rinsed 4 times with wash buffer obtained from the Biosource ELISA kit. The anti-Aβ40 or anti-Aβ42 rabbit polyclonal antiserum (specific for the Aβ40 or Aβ42 peptide) was added (100 μl) and the plate was incubated at room temperature for 2 hours with shaking. The wells were aspirated and washed 4 times before adding 100 μl of the alkaline phosphatase labeled anti-rabbit antibody and incubating at room temperature for 2 hours with shaking. The plates were then rinsed 5 times and the fluorescent substrate (100 μl) was added to the plate. The plate was incubated for 35 minutes at room temperature and the plate was read using a titer plate reader at an excitation wavelength of 460 nm and emission at 560 nm. Compounds were scored based on their ability to modulate levels of Aβ peptides in the plasma and the cerebral soluble/insoluble levels in the brain. Levels of Aβ observed in the plasma and brain of treated animals were normalized using values from vehicle-treated (water) or methylcellulose-treated control groups and ranked according to the strength of the pharmacological effect. Increases in the levels of Aβ peptides are indicated using “+” symbols, while decreases in the levels of Aβ peptides are indicated using “-” symbols. The strongest effects are recorded as “+++” or “---” while the weakest are shown as “+” or “-”.

[3] = target: T3, Aβ42 (Homo sapiens, UniProt P05067); experiment: Short term treatment of TgCRND8 mice: Aβ42 levels in plasma and brain (ELISA); assay type: in vivo, Mouse; conditions: brain homogenate, methylcellulose group
T3 construct: from tissue; host or cells: plasma and brain homogenate of TgCRND8 transgenic mice (hAPP transgene)
T3 sequence (P05067 672-713 limits assumed): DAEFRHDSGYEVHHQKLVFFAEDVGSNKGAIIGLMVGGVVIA
Text: as §1

[4] = test system: Aβ peptides; experiment: Short term treatment of TgCRND8 mice: Aβ peptide levels; assay type: in vivo, Mouse; conditions: after 14 and 28 days of treatment
Experimental: The short term therapeutic effect of 19 compounds of the invention was studied. These compounds were administered over a 14 or 28 day period at the end of which the levels of Aβ peptides in the plasma and brain of TgCRND8 animals were determined.
Starting at 11 weeks of age (±1 week) animals received daily administration of their respective treatment for a period of 14 or 28 days (groups 2-21), at a dose of 250 mg/kg at 10 ml/kg or of vehicle only (water; group 2) or 1% methyl cellulose only (group 21). The route of administration was subcutaneous for water-soluble compounds and oral for compounds solubilized in methylcellulose 1% (MC 1%). At the end of the treatment periods, plasma and perfused brains were collected for quantification of Aβ levels.
Aβ levels were evaluated in plasma and brain samples by ELISA using Human Aβ40 and Aβ42 Fluorometric ELISA kits from Biosource (Cat. No. 89-344 and 89-348) according to manufacturer's recommended procedures. […] The plate was incubated for 35 minutes at room temperature and the plate was read using a titer plate reader at an excitation wavelength of 460 nm and emission at 560 nm.
Compounds were scored based on their ability to modulate levels of Aβ peptides in the plasma and the cerebral soluble/insoluble levels in the brain. […] The strongest effects are recorded as “+++” or “−−−” while the weakest are shown as “+” or “−”.

[5] = brain homogenate, Day 28, 250 mg/kg daily oral

Q: Which “Binding Strength” value [1] does the source give for `CCCCCCCCCCCCCC[N+](C)(C)CCCS(=O)(=O)[O-]` [NA, CH3(CH2)13N^+(CH3)2(CH2)3SO3^−] here?
A: ++ (Moderate; when the total binding is between 120% and 70%)

Q: For `O=C1NCCCC[C@@H]1NCCCS(=O)(=O)[O-].[Na+]`, which “Binding Strength” value [1] is on record?
A: + (Weak; when the total binding is between 70% and 30%)

Q: Which “Binding Strength” value [1] does the source give for CH3(CH2)9N^+(CH3)2(CH2)3SO3^− [DB] here?
A: +++ (Strong; when the total binding is 120% and higher)

Q: With `NCCCCS(=O)(=O)[O-].[Na+]` as the molecule, how does the “Binding Strength” value [1] read?
A: − (None; when the total binding is between 30% and 0%)

Q: For `O=S(=O)(O)CCCNC1CCCc2ccccc21` (stereo not drawn) [Compound BU, 3-(1,2,3,4-tetrahydro-1-naphthylamino)-1-propanesulfonic acid], which “Aβ40 Change Soluble” value ([2]; brain homogenate, Day 14, 250 mg/kg daily oral) is on record?
A: − (Decreases in the levels of Aβ of 5 to 19% are scored as “−”)

Q: What about the “Aβ40 Change Insoluble” value [2, 5] of the same molecule?
A: −− (decreases of 20 to 38% are scored as “−−”)

Q: And the “Aβ40 Change Soluble” value [2, 5]?
A: −− (decreases of 20 to 38% are scored as “−−”)

Q: What about the “Aβ40 Change” value ([2]; plasma, Day 14, 250 mg/kg daily oral, TgCRND8 mice) of the same molecule?
A: − (Decreases in the levels of Aβ of 5 to 19% are scored as “−”)

Q: And the “Aβ42 Change Insoluble” value ([3]; Day 14, 250 mg/kg daily oral)?
A: −−− (decreases of 39% or more are scored as “−−−”)

Q: What about the “Aβ42 Change Insoluble” value ([3]; Day 28, 250 mg/kg daily oral) of the same molecule?
A: −− (decreases of 20 to 38% are scored as “−−”)

Q: Which “levels of Aβ peptides in the plasma” value [4] does the source give for `CC(C)(C)NCCCS(=O)(=O)O` [Compound BX, 3-(t-butyl)amino-1-propanesulfonic acid] here?
A: significant increase

Q: How did the “Binding Strength” value [1] turn out when `CCCCCCCCCCCC[N+](C)(C)CCCS(=O)(=O)[O-]` [DF, CH3(CH2)11N^+(CH3)2(CH2)3SO3^−] was run?
A: ++ (Moderate; when the total binding is between 120% and 70%)
